Test results from patent US20220243211A1, “PEPTIDE NUCLEIC ACID COMPOSITIONS WITH MODIFIED HOOGSTEEN BINDING SEGMENTS AND METHODS OF USE THEREOF” (Yale University, priority 2019, published 2022).

Experiments:
[1] = tested on: human CFBE cells; test: MQAE cAMP-stimulated chloride efflux assay; type: cell-based
From the text: FIG. 3 is a bar graph showing chloride efflux measured using fluorescent indicator dye N-[ethoxycarbonylmethyl]-6-methoxy-quinolinium bromide (MQAE), in untreated human CFBE cells and those treated with NPs, and those treated with blank particles. One way ANOVA with multiple comparisons was used to analyze chloride efflux in untreated CF cells, blank particle treated CF cells, PNA/DNA particle treated cells and normal human bronchial epithelial cells (16HBE14o-).
CFBE cells (CFBE41o-) and human bronchial epithelial cells (16HBE14o-) (Gruenert, et al., J Cyst Fibros 3 Suppl 2, 191-196 (2004)) were grown with EMEM (Corning) with 10% FBS, 20 mM L-glutamine, and Pen/Strep. Once grown to confluence, cells were trypsinized by first washing with PBS, then adding 0.25% trypsin for 5 minutes, and harvesting with culture media. Once grown to confluence, cells were trypsinized by first washing with 0.05% trypsin, then adding 0.25% trypsin for 5 minutes, and harvesting with RPMI medium with 10% FBS. Cells were frozen in 5% DMSO in culture medium as necessary. NPs were suspended in culture media by vigorous vortexing and water sonication, then added directly to cells at concentrations of 2 mg/mL×10^6 cells (corresponding to approximately 10^9 PNA/DNA molecules delivered to each cell assuming 100% efficiency).
Glass coverslips (22×50 mm) were sterilized by dipping in 70% EtOH and were subsequently placed in 60 mm cell culture dishes (3 per dish.) The plates were exposed to UV irradiation overnight. Cells (˜1×10^6) were seeded in the dish and the cells grew to confluence in MEM media containing 10% FBS, L-glutamine, and pen/strep. At least 12 hours before the experiment, the cells were fed with MEM media containing 5% FBS, L-glutamine, and pen/strep. The experiment was run as previously described (Shenoy, et al., Pediatric research 70, 447-452 (2011)). Briefly, cells were incubated with N-[ethoxycarbonylmethyl]-6-methoxy-quinolinium bromide (MQAE, Invitrogen) in DMSO (100 uL, 30 mM suspended in HEPES Cl solution) for 30 minutes at 37° C. […] MQAE was excited at 354±10 nm and the emitted fluorescence of at least 20 cells was measured at 460±10 nm every five seconds for two minutes. […] The rate of change in MQAE fluorescence (Δarbitrary fluorescence units/sec) was used to calculate Cl^− efflux.
To compare the activity of unmodified (classic) and γPNA treatments on gene editing in human CFBE cells, the cells were treated with either PLGA NPs containing no PNA/mismatched donor DNA (referred to as blank NP), PLGA NPs containing hCF-PNA/donor DNA, PBAE/PLGA/MPG NPs containing hCF-PNA/donor DNA and PBAE/PLGA/MPG NPs containing γhCF-PNA-h/donor DNA. After treatment of the cells, cAMP-stimulated chloride efflux was quantified using the MQAE assay (McNeer, et al., Nat Commun 6, 6952 (2015)). […]

[2] = tested on: F508 del CFTR in CFBE cells at ALI; test: Digital droplet PCR quantification of gene editing; type: cell-based, human; conditions: apical PNA/DNA NPs, 2 mg/dose, 3 doses
Protocol: FIG. 5A is a Schematic of treatment of cells grown at ALI. FIG. 5B is a bar graph showing Ussing Chamber assay results. CFBE cells at ALI were treated apically at 2 mg/dose for 3 doses with 48 hours between each dose **p<0.001; ***p<0.002. FIG. 5C is a dot plot showing digital droplet (ddPCR) quantification of gene editing in genomic DNA isolated from CFBE cells at ALI treated apically at 2 mg/dose for 3 doses with 48 hours between each dose ***p<0.002.
Nanoparticles were suspended in culture media, vortexted, and sonicated in a water bath (30s) and added directly to cells. For cells treated on collagen-coated plastic in 12-well plates, the cells were treated at a concentration of 2 mg/mL. For cells treated in 6-well plates at ALI, the cells were treated apically with 250 uL of media containing 2 mg of particles. […]
gDNA was extracted from CFBE cells using the Wizard SV DNA Purification System (Promega, Madison, Wis.) according to manufacturer's instructions. The concentration of extracted gDNA samples was measured using a QuBit® dsDNA BR assay kit (Invitrogen, Carlsbad, Calif.) according to manufacturer's instructions. […] Droplets were allowed to rest at 4° C. for at least 30 minutes after cycling and were then read using the QX200™ Droplet Reader (Bio-Rad). Data were analyzed using QuantaSoft™ software. […]

[3] = PBAE/PLGA/MPG NPs with PNA/donor DNA

“H-KKK-TJTJJTTT-OOO-TTTCCTCTATGGGTAAG-KKK-NH2 [γhCF PNA-h] (TNTNNTTTTTTCCTCTATGGGTAAG; listed as DNA, chemistry not fully specified) [tail clamp PNA targeting human CFTR gene with MPγ monomers in Hoogsteen domain]” was tested, and the chloride efflux [1, 3] was “no different than non-CF affected HBE cells”, the “chloride efflux compared to untreated cells or blank NPs” value [1, 3] was 7 fold and the “gene editing (ddPCR, fractional abundance of edited CFTR allele)” value [2] was −5%.

In the case of “H-KKK-TJTJJTTT-OOO-TTTCCTCTATGGGTAAG-KKK-NH2 [hCF PNA] (TNTNNTTTTTTCCTCTATGGGTAAG; listed as DNA, chemistry not fully specified)”, the chloride efflux [1, 3] is reported as “further enhanced”, the chloride efflux ([1]; PLGA NPs with PNA/donor DNA) is reported as “marked increase in chloride efflux” and the “gene editing (ddPCR, fractional abundance of edited CFTR allele)” value [2] is reported as “minimal correction”.
